PMC9886550, “Molecular mechanism of topoisomerase poisoning by the peptide antibiotic albicidin” (Nature Catalysis, 2023)

Legend:
[1] = biological target: T1, E. coli gyrase GyrB^K447W (Escherichia coli, UniProt P0AES4+P0AES6, K447W); experiment: DNA gyrase cleavage assay (CC50, % cleaved DNA); type: biochemical; details: for % maximal cleavage: GyrBK447W, average of 3 independent assays; for EC50: GyrB^K447W, mean ± s.d. of triplicate
T1 construct: alternative cryo-EM approach involving full-length E. coli gyrase; 10-His (cleaved yes); Twin-Strep (cleaved yes); made in house
Experimental: (§1) For DNA gyrase supercoiling assays to characterize gyrase mutants, 15 µl reactions were set up containing 250 ng of relaxed DNA, E. coli gyrase supercoiling buffer (35 mM Tris–Cl pH 7.5, 24 mM KCl, 4 mM MgCl2, 2 mM DTT, 1.8 mM spermidine, 1 mM ATP, 6.0% (w/v) glycerol, and 0.1 mg ml^−1 BSA), gyrase subunits and inhibitors. Concentrations of enzyme and inhibitor are stated in the figure legends. Inhibitors were diluted in the following way to reduce the chance of precipitation: stock compound in 100% DMSO was diluted to 5 mM in 100% DMSO. This compound solution was diluted to 1 mM by stepwise addition of 1 µl of 50% DMSO with thorough mixing via pipetting after each addition. All subsequent dilutions up to 100 µM were performed in the same way using H2O. After this point, compounds were stable and could be diluted in the normal way. Reactions were incubated at 37 °C for 30 min before stopping with 15 µl chloroform:isoamyl alcohol (24:1 v/v) and 15 µl of STEB (40% (w/v) sucrose, 100 mM Tris–Cl pH 8, 10 mM EDTA, 0.5 mg ml^−1 bromophenol blue).
(§2) Cleavage assays were set up in the same way as supercoiling assays with some modifications. The concentration of enzyme was increased 4-fold relative to the supercoiling assay and reactions were incubated for 1 h before addition of 0.2% SDS and proteinase K (0.2 mg ml^−1) and further incubation at 37 °C for 30 min to trap cleavage complexes. Reactions were stopped in the same way as supercoiling assays.
(§3) Results were visualized by agarose gel electrophoresis: 1% agarose Tris-acetate-EDTA (TAE) gels were run without ethidium bromide (supercoiling) or with 10 µg ml^−1 ethidium bromide (cleavage) at 8 V cm^−1.
(§4) DNA cleavage gels were analysed using densitometry (ImageJ). Experiments were carried out in triplicate and expressed as mean ± s.d. Curves were fitted using OriginPro 2021 (Origin Lab) according to a modified Hill equation:1 y=cI+(cF−cI)[…]/(k^n+x^n) where y is the percentage of cleaved DNA, cI is the initial cleavage, cF is the final cleavage, k is the CC50 (the concentration of inhibitor that results in cleavage of 50% of DNA), n is a slope factor and x is the inhibitor concentration.

[2] = biological target: T2, E. coli gyrase GyrA^V70A (Escherichia coli, UniProt P0AES4+P0AES6, V70A); experiment: DNA gyrase cleavage assay (CC50, % cleaved DNA); type: biochemical; details: for % maximal cleavage: GyrAV70A, average of 3 independent assays; for EC50: GyrA^V70A, mean ± s.d. of triplicate
T2 construct: alternative cryo-EM approach involving full-length E. coli gyrase; 10-His (cleaved yes); Twin-Strep (cleaved yes); made in house
Experimental: as §1, §2, §3, §4

[3] = biological target: T3, E. coli gyrase GyrA^S83L (Escherichia coli, UniProt P0AES4+P0AES6, S83L); experiment: DNA gyrase cleavage assay (CC50, % cleaved DNA); type: biochemical; details: for % maximal cleavage: GyrAS83L, average of 3 independent assays; for EC50: GyrA^S83L, mean ± s.d. of triplicate
T3 construct: alternative cryo-EM approach involving full-length E. coli gyrase; 10-His (cleaved yes); Twin-Strep (cleaved yes); made in house
Experimental: as §1, §2, §3, §4

[4] = tested on: selected Gram-negative and Gram-positive microorganisms; experiment: MIC activity groups over all tested strains; type: cell-based; parameters: key: a: most potent; b: intermediate; least active; details: MIC panel
Experimental: MIC values were determined according to the ninth edition of the Approved Standard M07-A9. The test was carried out for six different bacterial strains (E. coli DSM 1116 (Gram-negative), E. coli BW25113 (Gram-negative), B. subtilis DSM 10 (Gram-positive), M. luteus DSM 1790 (Gram-positive), M. phlei DSM 750 (Gram-positive), S. typhimurium TA 100 (Gram-negative). First, 20 µl of glycerol stock of each strain was inoculated in 20 ml LB (Lennox) followed by incubation overnight at 37 °C, 200 r.p.m. The test inoculum was adjusted by the 0.5 McFarland Standard. Within 15 min of preparation, the adjusted inoculum suspension was diluted in MHBII so that each well contained approximately 5 × 10^5 c.f.u. ml^−1 in a final volume of 100 µl. Then, 95 µl of the inoculum was applied per well and 5 µl of the (diluted) albicidins was added. For dilutions, the dry powders were dissolved in dimethylsulfoxide (DMSO) with a concentration of 2.56 mg ml^−1, and the obtained stock solutions were further diluted in DMSO. Next, 5 µl of each antibiotic dilution was applied to the microdilution tray to reach final concentrations of 8 to 0.016 µg ml^−1. One row of each well plate served as a growth control without antibiotic and another row of the microdilution tray served as a sterility control (only MHBII media). The antimicrobial effect of the solvent was tested by adding 5 µl DMSO to several wells. Purity check and cell titre control were performed according to International Standard M07-A9 on Mueller–Hinton II Agar. Both microdilution trays and agar plates were incubated at 37 °C for 20 h.

[5] = biological target: E. coli Topo IV (Escherichia coli, UniProt P0AFI2+P20083); experiment: E. coli Topo IV relaxation assay; type: biochemical; details: tested 0.1, 1, 10, 100 µM
Experimental: E. coli Topo IV relaxation assays were set up in the same way as supercoiling assays with some modifications. The substrate was negatively supercoiled DNA, E. coli Topo IV relaxation buffer (50 mM K-HEPES pH 7.6, 100 mM potassium glutamate, 10 mM magnesium acetate, 10 mM DTT, 1 mM ATP and 0.05 mg ml^−1 BSA) and reactions were incubated for 1 h. Reactions were stopped in the same way as supercoiling assays.
as §3
Supplementary Figure 11. Activity of albicidin and Albi-1/2/3 on E. coli topoisomerase IV. a. Plasmid relaxation activity of E. coli topo IV in the presence of albicidin, Albi-1, Albi-2 and Albi-3. First lane: negatively supercoiled pBR322; second lane: innate relaxation activity of E. coli topo IV (12.5 nM); third lane: effect of 20 µM CFX; subsequent lanes: effect of increasing compound concentration (0.1, 1, 10, 100 […]
higher concentration. b. Cleavage activity of E. coli topo IV in the presence of albicidin, Albi-1, Albi-2 and Albi-3. First lane: negatively supercoiled pBR322; second lane: innate cleavage activity of E. coli topo IV (15 nM); third lane: effect of 20 µM CFX; subsequent lanes: effect of increasing compound concentration (0.1, 1, 10, 100 µM). […]
concentration. All experiments were carried out in triplicates and representative gels […]
(1 picture or pasted object on this page, not shown here)

[6] = biological target: T4, WT E. coli gyrase (Escherichia coli, UniProt P0AES4+P0AES6); experiment: biochemical; type: biochemical; details: for % maximal cleavage: GyraseWT, average of 3 independent assays
T4 construct: alternative cryo-EM approach involving full-length E. coli gyrase; 10-His (cleaved yes); Twin-Strep (cleaved yes); made in house
Experimental: as §1, §2, §3, §4

E. coli Topo IV, sequence (P0AFI2 whole entry): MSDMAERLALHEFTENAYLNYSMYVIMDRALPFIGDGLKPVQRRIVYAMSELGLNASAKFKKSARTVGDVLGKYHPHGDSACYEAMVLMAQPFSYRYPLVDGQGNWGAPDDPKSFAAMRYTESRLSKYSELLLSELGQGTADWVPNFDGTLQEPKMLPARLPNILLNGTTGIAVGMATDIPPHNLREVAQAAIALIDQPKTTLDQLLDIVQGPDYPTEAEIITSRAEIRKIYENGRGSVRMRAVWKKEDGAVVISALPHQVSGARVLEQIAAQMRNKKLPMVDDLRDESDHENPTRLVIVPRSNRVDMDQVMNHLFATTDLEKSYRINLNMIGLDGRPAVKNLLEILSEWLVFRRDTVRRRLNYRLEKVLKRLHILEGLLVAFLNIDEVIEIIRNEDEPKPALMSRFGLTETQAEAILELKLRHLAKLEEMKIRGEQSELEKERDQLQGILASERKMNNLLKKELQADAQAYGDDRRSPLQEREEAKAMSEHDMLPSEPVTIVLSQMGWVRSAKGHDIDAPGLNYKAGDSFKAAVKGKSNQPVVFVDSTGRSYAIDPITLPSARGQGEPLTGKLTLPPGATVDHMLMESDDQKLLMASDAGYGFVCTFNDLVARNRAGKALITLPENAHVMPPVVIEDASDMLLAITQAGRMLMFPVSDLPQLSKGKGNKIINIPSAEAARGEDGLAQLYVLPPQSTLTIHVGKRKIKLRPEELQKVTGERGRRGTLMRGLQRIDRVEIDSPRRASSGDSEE
E. coli Topo IV, sequence (P20083 whole entry): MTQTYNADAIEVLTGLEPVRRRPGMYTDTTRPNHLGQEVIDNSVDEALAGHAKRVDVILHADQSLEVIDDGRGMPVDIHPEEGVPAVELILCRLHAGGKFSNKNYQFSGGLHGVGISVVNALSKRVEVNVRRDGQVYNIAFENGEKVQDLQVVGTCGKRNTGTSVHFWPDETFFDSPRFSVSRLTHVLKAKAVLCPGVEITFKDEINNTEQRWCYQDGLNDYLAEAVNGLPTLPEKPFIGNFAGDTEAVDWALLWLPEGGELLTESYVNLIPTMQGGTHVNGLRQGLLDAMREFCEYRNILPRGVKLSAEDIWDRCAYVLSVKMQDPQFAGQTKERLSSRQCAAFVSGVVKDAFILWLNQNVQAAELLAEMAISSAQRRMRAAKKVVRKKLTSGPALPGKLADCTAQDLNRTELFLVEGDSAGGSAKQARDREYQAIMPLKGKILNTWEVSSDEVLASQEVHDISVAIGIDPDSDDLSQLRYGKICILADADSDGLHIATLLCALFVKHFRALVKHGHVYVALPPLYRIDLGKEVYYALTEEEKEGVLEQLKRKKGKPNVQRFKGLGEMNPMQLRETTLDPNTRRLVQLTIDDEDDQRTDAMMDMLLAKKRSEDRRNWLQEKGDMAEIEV

Row | Structure (SMILES) | % maximal cleavage [1] [%] | increase in CC50 ([1]; GyrB^K447W vs WT gyrase, 60 min) | EC50 [1] [nM] | % maximal cleavage [2] [%] | EC50 [2] [nM] | % maximal cleavage [3] [%] | EC50 [3] [nM] | activity group (superscript letter) [4] | concentration required for full inhibition of Topo IV relaxation activity [5] [µM] | % maximal cleavage [6] [%] | EC50 ([6]; Gyrase^WT, mean ± s.d. of triplicate, read-out: CC50 (the source's name)) [nM]
1 | CC(C)Oc1c(NC(=O)c2ccc(NC(=O)[C@H](Cc3c[nH]nn3)NC(=O)c3ccc(NC(=O)c4ccc(C#N)cc4)cn3)cn2)ccc(C(=O)Nc2ccc(C(=O)O)cc2)c1O [Albi-1] | 83±3 | more than 50 fold | 412 ± 88 | 90±2 | 16 ± 1.3 | 80±14 | 10 ± 1.5 | Albi-1^a | 10 | 73±6 | 8 ± 2.7
2 | COc1c(NC(=O)c2ccc(NC(=O)c3ccc(NC(=O)[C@H](Cc4c[nH]nn4)NC(=O)c4ccc(NC(=O)c5ccc6cc(O)ccc6c5)cc4)cn3)c(OCCN)c2O)ccc(C(=O)O)c1O [Albi-2] | 59±6 | – | 251 ± 40 | 58±2 | 189 ± 49 | 72±7 | 208 ± 34 | Albi-2^b | 100 | 78±2 | –
